The source of these data is PubChem BioAssay (NCI).

Common to all, as to assay: NCI-60 cell line screen, 48 h
The subject of assay [1] is A549 NSCLC.
For assay [2], the system named is ACHN renal.
In assay [3] the test system is EKVX NSCLC.
Assay [4] relates to MDA-MB-231 breast.
Assay [5] deals with NCI-H522 lung.
Assay [6] has as its system OVCAR-3 ovarian.
Assay [7] deals with OVCAR-8 ovarian.
Assay [8] concerns SN12C renal.
For assay [9], the system named is SNB-75 CNS.
Assay [10] deals with TK-10 renal.

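Growth conditions: 96-well plates. Treatment: test compound, 48 hours, 5 concentrations. Analysis: linear interpolation between bracketing concentrations; unreached endpoints set to highest concentration. GI50: concentration for 50% inhibition of growth. The concentration for full growth arrest is given as TGI.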

For `CC1(CC(=O)O)OC2CCCCCC2O1` (configuration not stated) (tested in a mixture with another compound), the TGI in assay [1], in assay [2], in assay [3], in assay [4], in assay [5] and in assay [6] was > 100 µM throughout. The TGI in assay [7], in assay [8], in [9] and in assay [10] was > 100 µM throughout.
On to `CCOC(=O)c1[nH]c2c(c1C)-c1[nH]c(=O)c(S(=O)(=O)c3ccccc3)cc1SC2`, for which the GI50 in assay [1] is 41.3 µM; in [2] it was 47.3 µM; in [3], 38.8 µM; in [4] it was 34.9 µM; in assay [5] it was 28.7 µM; in assay [6], 31.6 µM. Also, the GI50 in [7] is 37.7 µM; in [8], 93.6 µM; in assay [9], 24.8 µM; in assay [10], 42.6 µM. Moreover, the TGI in [1], in assay [2], in assay [3], in [4], in assay [5] and in assay [6] was > 100 µM throughout. Further, the TGI is > 100 µM in assay [7], > 100 µM in assay [8], 86.6 µM in [9] and > 100 µM in assay [10].
Regarding `CC[C@@]1(OC(=O)CN)C(=O)OCc2c1cc1n(c2=O)Cc2cc3cc(N)ccc3nc2-1`, the GI50 in assay [1] is < 0.0176 µM; in assay [2], < 0.01 µM; in assay [3] it was 0.465 µM; in assay [4], 0.769 µM; in assay [5] it was 0.0139 µM; in [6] it was 0.181 µM. In addition, the figures for the GI50 in assay [8], in assay [9] and in assay [10] were < 0.01 µM, < 0.017 µM and 2.19 µM, respectively. The TGI in [1] was 1.45 µM; in assay [2] it was 0.151 µM; in [3], > 100 µM; in assay [4], > 100 µM; in assay [5], 0.34 µM; in assay [6], 0.848 µM. Besides, the TGI in [8] and in [10] was > 100 µM each time.
Regarding `Cc1ccc(NCSc2ccc(Cl)cc2)cc1`, the GI50 in [1] was 9.8 µM; in assay [2], > 100 µM; in [3] it was 31.4 µM; in assay [4], 15.1 µM; in assay [5], 21.9 µM; in assay [6] it was 9.22 µM. Moreover, the GI50 in [7] was > 100 µM; in assay [8] it was 7.01 µM; in assay [9], 9.92 µM; in assay [10] it was 51.8 µM. The TGI in assay [1], in assay [2], in assay [3], in assay [4], in [5] and in [6] was > 100 µM each time. Also, the TGI in [7] is > 100 µM; in assay [8], > 100 µM; in assay [9] it was 45.5 µM; in assay [10] it was > 100 µM.
Turning to `CC1Cc2c(N(C)C)ncnc2N(C)c2ccc(Cl)cc21` (configuration not stated), the GI50 in [1] is 10.7 µM; in [2] it was 7.59 µM; in assay [3] it was 2.77 µM; in assay [4] it was 5.84 µM; in [5] it was 2.79 µM; in assay [6], 2.51 µM. Besides, the GI50 in assay [7] was 9.17 µM; in [8], 10.2 µM; in assay [9], 2.02 µM; in assay [10], 14.8 µM. For the same molecule, the TGI was > 100 µM in assay [1]; > 100 µM in [2]; > 100 µM in assay [3]; 55.4 µM in [4]; 35.3 µM in [5]; 8.88 µM in [6]. The TGI in assay [7] is > 100 µM; in assay [8], 37.1 µM; in assay [9], 8.52 µM; in [10] it was > 100 µM.
Turning to `Cc1nn(-c2ccccc2)c2c1C1C(=C(c3ccc(Cl)cc3)N2)C(=O)Nc2ccccc21` (configuration not stated), the GI50 was 3.12 µM in [1]; 3.51 µM in [2]; 2.41 µM in [4]; 1.78 µM in assay [5]; 4.39 µM in assay [6]; 3.26 µM in [7]. The results for the GI50 in [8] and in [9] were 4.96 µM and 3.9 µM, respectively. In addition, the TGI in assay [1] is > 100 µM; in assay [2] it was > 100 µM; in assay [4], 8.74 µM; in assay [5] it was 3.86 µM; in assay [6], 20.3 µM; in assay [7], 67 µM. Also, the TGI in [8] amounted to 32.2 µM; in assay [9] it was 96.3 µM.
With `Cc1ccc([P+](Cc2ccc([N+](=O)[O-])cc2)(c2ccc(C)cc2)c2ccc(C)cc2)cc1`, the GI50 in [1] was 14.4 µM; in assay [2], 15.8 µM; in assay [4] it was 1.46 µM; in [5], 1.56 µM; in [6] it was 1.71 µM; in assay [7] it was 2.96 µM. Also, the GI50 is 4.27 µM in [8] and 1.99 µM in assay [9]. For the same molecule, the TGI worked out at 57 µM in assay [1]; 38.4 µM in [2]; 7.38 µM in assay [4]; 4.26 µM in [5]; 7.07 µM in assay [6]; 13 µM in [7]. The TGI in [8] came to 17.5 µM; in assay [9], 8.77 µM.
Take `Oc1cccc(-c2nc3ccccc3s2)c1`: the TGI is > 100 µM in assay [1]; > 100 µM in [2]; 42.7 µM in assay [3]; 56.2 µM in assay [4]; 51 µM in assay [5]; > 100 µM in assay [6]. Moreover, the figures for the TGI in assay [7], in assay [8] and in assay [9] were > 100 µM, > 100 µM and 61.8 µM, respectively.
Regarding `CC1(C)N=C(N)N=C(N)N1c1ccc(OCC(=O)Nc2cccc(S(=O)(=O)F)c2)c(Cl)c1`, the TGI was > 100 µM in [1]; > 100 µM in [2]; > 100 µM in assay [4]; > 100 µM in [5]; > 76.8 µM in assay [6]; > 100 µM in assay [7]. For the same molecule, the values for the TGI in [8], in assay [9] and in [10] were > 100 µM, > 100 µM and > 44.4 µM, respectively.
In the case of `O=C(/C=C/N1CCN(c2cccc(C(F)(F)F)c2)CC1)c1ccc(Cl)cc1Cl`, the GI50 in [1] was 39.8 µM; in [2], 23.4 µM; in assay [3] it was 27.9 µM; in assay [4], 26.8 µM; in [5] it was 36.1 µM; in assay [6] it was 2.44 µM. Besides, the figures for the GI50 in assay [7], in assay [8] and in [10] were 28.5 µM, 21.3 µM and 30.1 µM, respectively. For the same molecule, the TGI is > 100 µM in assay [1]; 46.9 µM in assay [2]; 65.4 µM in [3]; 59.8 µM in [4]; > 100 µM in [5]; 19.3 µM in assay [6]. Moreover, the TGI in [7] amounted to 83.4 µM; in [8], 40.6 µM; in assay [10], 87.3 µM.
Turning to `CC(CS(=O)(=O)Cc1ccccc1)C(N)=O` (configuration not stated), the TGI in assay [1], in [2], in [3], in assay [4], in assay [5] and in assay [6] was > 100 µM throughout. The TGI in assay [7], in assay [8] and in [10] was > 100 µM throughout.
With `COc1ccccc1C(=O)c1cnc(NC2CCN(S(C)(=O)=O)CC2)nc1N`, the GI50 is 4.68 µM in assay [1]; 4.68 µM in assay [2]; 7.27 µM in [4]; > 25 µM in assay [5]; 9.15 µM in [6]; 6.97 µM in assay [7]. For the same molecule, the GI50 in assay [8] is 5.48 µM; in assay [9], 7.57 µM; in assay [10] it was 5.92 µM. For the same molecule, the TGI in assay [1], in assay [2], in [4], in assay [5], in [6] and in [7] was > 25 µM in each case. Further, the TGI in assay [8], in assay [9] and in assay [10] was > 25 µM in each case.
For the molecule `COc1c(O)c(OC)c(C(=O)/C=C/c2ccccc2)c(O)c1OC`, the TGI in assay [2] is 58.1 µM; in assay [3], > 100 µM; in assay [4], 72 µM; in [5], 31.9 µM; in assay [6], 51.3 µM; in assay [7], 38.1 µM. The TGI in assay [8] was 32.6 µM; in assay [9] it was > 100 µM; in [10], > 100 µM.
Turning to `Cc1nnc([S-])s1.[Au+].c1ccc([PH+](c2ccccc2)c2ccccc2)cc1`, the GI50 in assay [2] was 1.86 µM; in assay [4] it was 1.65 µM; in assay [5], 0.692 µM; in assay [6], 1.73 µM; in [9], 1.53 µM; in assay [10], 1.83 µM. In addition, the TGI in [2] was found to be 3.26 µM; in [4], 3.05 µM; in assay [5] it was 3.17 µM; in [6], 3.14 µM; in assay [9], 2.87 µM; in assay [10], 3.32 µM.
Turning to `O=C(Oc1c(I)ccccc1=O)c1ccc([N+](=O)[O-])cc1`, the TGI was determined as 63.2 µM in [1]; 68.5 µM in assay [2]; 28.3 µM in [3]; 87.7 µM in [4]; 36.7 µM in assay [5]; 40.1 µM in [6]. In addition, the TGI in assay [7] is 65.1 µM; in [8] it was 67.9 µM; in [10], > 100 µM.
For `CCN(CC)CCOc1ccc(/C=C2\C[C@H]3[C@@H]4CC=C5C[C@@H](OC(C)=O)CC[C@]5(C)[C@H]4CC[C@]3(C)[C@H]2OC(C)=O)cc1OC`, the GI50 was 9.86 µM in assay [1]; 9.19 µM in assay [2]; 6.84 µM in [3]; 14.1 µM in [4]; 17.4 µM in assay [5]; 10.3 µM in assay [6]. In addition, the GI50 in assay [7] was 11.4 µM; in assay [8] it was 9.06 µM; in [10], 9.67 µM. Besides, the TGI was 19.6 µM in [1]; 19.2 µM in assay [2]; 14.5 µM in assay [3]; 31.8 µM in assay [4]; > 50 µM in [5]; 22.1 µM in assay [6]. The TGI in assay [7] was 22.7 µM; in [8], 21.3 µM; in [10] it was 20.5 µM.
On to `COc1cc[nH]c1/C=C1\C(=O)Nc2ccc(F)c(C#CC3(O)CCOCC3)c21`, for which the GI50 in assay [1] was 0.536 µM; in assay [2] it was 0.487 µM; in [4] it was 0.885 µM; in assay [5], 1.08 µM; in [6], 0.911 µM; in assay [7], 0.867 µM. Moreover, the GI50 is 0.615 µM in [8], 0.338 µM in [9] and 0.507 µM in assay [10]. Besides, the TGI in [1] was 2.25 µM; in [2], > 25 µM; in [4], > 25 µM; in assay [5], 4.53 µM; in assay [6], 2.25 µM; in assay [7], > 25 µM. Besides, the TGI in [8] is > 25 µM; in assay [9], 1.94 µM; in assay [10] it was 2.92 µM.
Consider `O=C1C=C(Nc2cccc(Br)c2)c2ccccc2C1=O`, for which the GI50 was 1.54 µM in [1]; 0.957 µM in assay [2]; 1.51 µM in assay [4]; 4.79 µM in assay [5]; 2.89 µM in assay [6]; 18.6 µM in assay [7]. Moreover, the values for the GI50 in [8] and in assay [9] were 5.79 µM and 0.39 µM, respectively. In addition, the TGI in assay [1] was 12.3 µM; in [2], > 100 µM; in assay [4] it was 36.5 µM; in assay [5], 60.1 µM; in assay [6], 16 µM; in assay [7] it was 93.4 µM. In addition, the TGI in [8] was 23.8 µM; in [9], 5.01 µM.
As to `O=C1c2cccnc2C(=O)c2c1c(C(=O)OCCCN1CCOCC1)c1ccccn21`, the GI50 in [1] was < 0.01 µM; in assay [3], 0.0758 µM; in assay [4], 1.32 µM; in assay [5] it was < 0.01 µM; in [6], 0.0201 µM; in assay [7] it was < 0.01 µM. For the same molecule, the results for the GI50 in [8], in [9] and in assay [10] were < 0.01 µM, < 0.01 µM and 0.0292 µM, respectively. Besides, the TGI was 0.072 µM in assay [1]; 1.75 µM in assay [3]; 15.8 µM in [4]; < 0.0127 µM in assay [5]; 0.528 µM in assay [6]; 1.92 µM in [7]. Further, the TGI was determined as 1.82 µM in [8], 0.015 µM in assay [9] and 5.57 µM in assay [10].
